Active and inactive are the calls of the source. Non-standard residues stand in square brackets, D forms with d. Residues, ends and D or L forms follow the SMILES beside them.
Key:
SN12K1 = assay: cells; format: functional; settings: Homo sapiens
P388/ADR = assay: cells; format: functional; settings: Mus musculus
P388 = assay: cells; format: functional; settings: Mus musculus
Tumor necrosis factor = Tumor necrosis factor (Homo sapiens, UniProt P01375); assay: TNFa-triggered NF-kB activation inhibitors, SAR follow-up, cell-based, revised (AID 2337); format: functional
Tumor necrosis factor, sequence (P01375 whole entry): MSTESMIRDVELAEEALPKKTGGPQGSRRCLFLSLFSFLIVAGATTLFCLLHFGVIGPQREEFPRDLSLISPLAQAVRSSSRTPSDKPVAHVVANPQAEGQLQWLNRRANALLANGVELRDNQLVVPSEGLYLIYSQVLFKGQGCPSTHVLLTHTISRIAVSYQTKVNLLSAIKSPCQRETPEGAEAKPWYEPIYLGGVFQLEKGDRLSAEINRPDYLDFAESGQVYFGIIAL

HEK293 [1] = assay: cells; settings: Homo sapiens
[2] = target: T1, Nucleotide-binding oligomerization domain-containing protein 1 (Homo sapiens, UniProt Q9Y239); assay: NOD1 signaling inhibitors, SAR follow-up, revised (AID 2333); format: functional
T1 sequence (Q9Y239 whole entry): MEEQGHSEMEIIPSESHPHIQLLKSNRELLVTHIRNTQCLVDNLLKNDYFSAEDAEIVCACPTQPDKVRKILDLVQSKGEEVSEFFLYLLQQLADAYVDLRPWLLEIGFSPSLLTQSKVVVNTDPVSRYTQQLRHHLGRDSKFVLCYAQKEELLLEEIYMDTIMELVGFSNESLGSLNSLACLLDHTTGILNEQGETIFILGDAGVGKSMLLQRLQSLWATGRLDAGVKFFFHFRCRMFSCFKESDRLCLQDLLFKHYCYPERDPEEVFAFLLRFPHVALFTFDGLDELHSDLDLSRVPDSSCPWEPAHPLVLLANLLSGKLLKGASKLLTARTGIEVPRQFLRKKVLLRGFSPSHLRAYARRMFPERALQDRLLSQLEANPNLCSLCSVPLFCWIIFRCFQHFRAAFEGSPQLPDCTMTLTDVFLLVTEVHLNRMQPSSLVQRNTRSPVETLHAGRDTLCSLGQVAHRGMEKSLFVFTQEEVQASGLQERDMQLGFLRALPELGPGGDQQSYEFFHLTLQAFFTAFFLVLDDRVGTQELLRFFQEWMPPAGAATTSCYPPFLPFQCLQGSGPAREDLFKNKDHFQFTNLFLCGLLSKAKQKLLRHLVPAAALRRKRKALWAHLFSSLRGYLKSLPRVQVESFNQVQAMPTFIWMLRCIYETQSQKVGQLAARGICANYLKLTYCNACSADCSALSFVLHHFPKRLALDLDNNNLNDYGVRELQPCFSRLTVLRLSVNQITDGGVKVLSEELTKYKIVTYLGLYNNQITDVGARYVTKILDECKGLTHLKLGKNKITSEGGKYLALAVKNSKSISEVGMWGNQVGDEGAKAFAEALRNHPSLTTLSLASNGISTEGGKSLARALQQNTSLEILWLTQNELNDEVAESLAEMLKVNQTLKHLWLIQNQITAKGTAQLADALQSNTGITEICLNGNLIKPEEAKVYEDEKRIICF

[3] = target: T2, Type-1 angiotensin II receptor (Homo sapiens, UniProt P30556); assay: AT1 receptor antagonists, dose response, selectivity assay for APJ receptor antagonist project, cell-based, uHTS hits (AID 463214); format: functional;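 note: antagonist potency against angiotensin II stimulated AT1 response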
T2 sequence (P30556 whole entry): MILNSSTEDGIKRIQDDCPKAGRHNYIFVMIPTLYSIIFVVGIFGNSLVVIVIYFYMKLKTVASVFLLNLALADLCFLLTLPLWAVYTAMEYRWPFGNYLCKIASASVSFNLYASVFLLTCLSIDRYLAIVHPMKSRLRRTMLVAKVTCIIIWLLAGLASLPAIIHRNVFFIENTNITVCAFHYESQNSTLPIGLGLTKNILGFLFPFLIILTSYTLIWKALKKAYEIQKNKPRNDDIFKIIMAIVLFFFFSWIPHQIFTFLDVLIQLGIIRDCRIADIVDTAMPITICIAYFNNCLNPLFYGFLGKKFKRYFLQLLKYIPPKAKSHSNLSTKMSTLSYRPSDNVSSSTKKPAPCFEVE

Beta-galactosidase = Beta-galactosidase (Escherichia coli, UniProt Q8VNN2); assay: PubChem AID 485352; format: functional
Beta-galactosidase, sequence (Q8VNN2 whole entry): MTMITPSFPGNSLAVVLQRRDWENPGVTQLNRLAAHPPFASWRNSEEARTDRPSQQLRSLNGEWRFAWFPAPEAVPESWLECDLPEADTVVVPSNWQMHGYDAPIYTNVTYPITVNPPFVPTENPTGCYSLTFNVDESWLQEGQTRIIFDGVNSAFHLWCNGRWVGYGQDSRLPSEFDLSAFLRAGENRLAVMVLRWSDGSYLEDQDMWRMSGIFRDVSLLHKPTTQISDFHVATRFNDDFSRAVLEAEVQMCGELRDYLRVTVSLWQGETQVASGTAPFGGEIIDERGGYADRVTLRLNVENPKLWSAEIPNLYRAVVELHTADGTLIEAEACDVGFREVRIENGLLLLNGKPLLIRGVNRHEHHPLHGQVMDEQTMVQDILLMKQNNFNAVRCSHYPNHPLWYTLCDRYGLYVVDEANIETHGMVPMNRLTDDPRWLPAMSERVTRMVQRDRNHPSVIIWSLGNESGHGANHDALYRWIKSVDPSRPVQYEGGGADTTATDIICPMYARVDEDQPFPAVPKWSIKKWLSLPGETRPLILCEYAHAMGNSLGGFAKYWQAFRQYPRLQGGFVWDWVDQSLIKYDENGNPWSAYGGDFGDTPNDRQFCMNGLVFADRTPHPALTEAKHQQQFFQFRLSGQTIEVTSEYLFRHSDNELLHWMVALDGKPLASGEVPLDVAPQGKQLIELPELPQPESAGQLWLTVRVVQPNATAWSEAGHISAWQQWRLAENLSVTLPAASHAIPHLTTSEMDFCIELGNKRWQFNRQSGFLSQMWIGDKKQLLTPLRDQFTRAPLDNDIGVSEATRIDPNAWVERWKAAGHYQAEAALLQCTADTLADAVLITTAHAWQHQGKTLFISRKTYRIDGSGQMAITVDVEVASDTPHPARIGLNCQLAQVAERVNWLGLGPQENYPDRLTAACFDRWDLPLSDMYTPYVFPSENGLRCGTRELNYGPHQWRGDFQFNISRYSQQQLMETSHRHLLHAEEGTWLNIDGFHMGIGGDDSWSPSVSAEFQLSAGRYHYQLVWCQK

[4] = target: T3, Tyrosine-protein phosphatase non-receptor type 5 (Homo sapiens, UniProt P54829); assay: STEP phosphatase inhibitors, confirmation, biochemical, fluorescence intensity, uHTS hits (AID 602372); format: functional; settings: read-out: IC50_Mean
T3 sequence (P54829 whole entry): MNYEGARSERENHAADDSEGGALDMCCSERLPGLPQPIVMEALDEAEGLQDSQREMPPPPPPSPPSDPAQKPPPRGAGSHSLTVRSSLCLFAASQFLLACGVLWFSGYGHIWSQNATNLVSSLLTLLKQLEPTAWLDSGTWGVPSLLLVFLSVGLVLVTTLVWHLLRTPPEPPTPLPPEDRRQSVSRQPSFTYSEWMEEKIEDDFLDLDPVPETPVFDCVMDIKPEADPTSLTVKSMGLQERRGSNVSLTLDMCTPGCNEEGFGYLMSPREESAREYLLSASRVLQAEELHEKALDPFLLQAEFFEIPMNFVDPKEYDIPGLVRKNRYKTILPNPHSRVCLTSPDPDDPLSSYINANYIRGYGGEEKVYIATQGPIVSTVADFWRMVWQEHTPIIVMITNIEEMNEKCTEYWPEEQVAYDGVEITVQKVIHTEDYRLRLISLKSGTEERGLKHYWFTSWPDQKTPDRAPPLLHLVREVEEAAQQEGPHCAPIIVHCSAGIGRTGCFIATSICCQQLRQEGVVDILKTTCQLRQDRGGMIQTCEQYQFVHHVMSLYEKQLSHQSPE

[5] = target: Dual specificity protein phosphatase 3 (Homo sapiens, UniProt P51452); assay: VHR phosphatase inhibition, dose response, selectivity assay for STEP inhibitor project, biochemical (AID 602374); format: functional; settings: read-out: IC50_Mean
Dual specificity protein phosphatase 3, sequence (P51452 whole entry): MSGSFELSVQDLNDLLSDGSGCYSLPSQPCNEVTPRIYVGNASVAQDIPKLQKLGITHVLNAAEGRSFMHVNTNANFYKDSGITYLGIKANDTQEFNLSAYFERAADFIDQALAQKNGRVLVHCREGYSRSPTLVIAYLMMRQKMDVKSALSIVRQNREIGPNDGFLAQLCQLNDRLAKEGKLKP

[6] = target: Glucose-6-phosphate 1-dehydrogenase (Homo sapiens, UniProt P11413); assay: human G6PD enzyme inhibitors, dose response, selectivity assay for P. falciparum G6PD inhibitor project, biochemical, fluorescence (AID 504792); format: functional
Glucose-6-phosphate 1-dehydrogenase, sequence (P11413 whole entry): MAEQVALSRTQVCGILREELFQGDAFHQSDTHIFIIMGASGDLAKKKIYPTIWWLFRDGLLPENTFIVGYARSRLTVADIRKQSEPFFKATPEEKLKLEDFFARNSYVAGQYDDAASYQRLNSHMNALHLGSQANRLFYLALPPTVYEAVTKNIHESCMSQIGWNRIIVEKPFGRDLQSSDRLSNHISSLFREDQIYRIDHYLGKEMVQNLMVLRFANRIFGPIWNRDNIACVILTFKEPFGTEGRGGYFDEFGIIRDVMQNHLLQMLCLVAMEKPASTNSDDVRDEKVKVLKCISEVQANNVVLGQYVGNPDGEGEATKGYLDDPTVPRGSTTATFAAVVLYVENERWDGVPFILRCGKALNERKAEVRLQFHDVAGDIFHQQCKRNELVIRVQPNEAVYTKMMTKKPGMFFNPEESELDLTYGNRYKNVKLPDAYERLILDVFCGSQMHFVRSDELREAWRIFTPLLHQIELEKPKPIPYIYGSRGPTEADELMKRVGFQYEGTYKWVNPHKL

[7] = target: T4, Tyrosine-protein phosphatase non-receptor type 11 (Homo sapiens, UniProt Q06124); assay: SHP2 phosphatase inhibition, dose response, selectivity assay for STEP inhibitor project, biochemical (AID 602367); format: functional; settings: read-out: IC50_Mean
T4 sequence (Q06124 whole entry): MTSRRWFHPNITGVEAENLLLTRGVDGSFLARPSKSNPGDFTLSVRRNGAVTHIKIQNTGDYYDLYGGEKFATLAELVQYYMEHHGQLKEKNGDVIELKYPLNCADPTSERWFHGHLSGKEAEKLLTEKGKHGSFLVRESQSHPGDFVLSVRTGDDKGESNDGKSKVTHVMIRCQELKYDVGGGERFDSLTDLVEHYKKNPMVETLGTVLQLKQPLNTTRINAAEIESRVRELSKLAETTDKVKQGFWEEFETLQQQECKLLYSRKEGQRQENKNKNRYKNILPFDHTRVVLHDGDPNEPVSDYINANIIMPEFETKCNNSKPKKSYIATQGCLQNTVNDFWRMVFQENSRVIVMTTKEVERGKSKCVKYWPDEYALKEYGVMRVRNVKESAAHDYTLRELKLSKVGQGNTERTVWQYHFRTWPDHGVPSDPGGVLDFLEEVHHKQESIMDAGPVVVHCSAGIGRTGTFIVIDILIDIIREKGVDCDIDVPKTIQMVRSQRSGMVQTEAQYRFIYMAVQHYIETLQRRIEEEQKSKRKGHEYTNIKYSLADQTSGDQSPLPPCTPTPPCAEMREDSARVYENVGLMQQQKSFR

INS1 = assay: beta cell apoptosis inhibitors, cytokine rescue, dose response, luminescence, retest (AID 449756); format: functional, cell-based; settings: Rattus norvegicus;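 note: cell death triggered by IL-1 beta plus TNF-alpha plus IFN-gamma mixture; protective hits raise ATP signal compared with cytokine alone wells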
[8] = inhibitors of firefly luciferase expression or activity, dose response, H4 neuroglioma cells, luminescence (AID 1990); format: functional, cell-based
[9] = target: T5, Heat shock factor protein 1 (Mus musculus, UniProt P38532); assay: inhibition of MG132-induced HSE-luciferase signal, confirmation, cell-based, NIH3T3, luminescence, dose retest (AID 2382); format: functional;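 note: NIH3T3 fibroblasts with HSF1-driven luciferase reporter stressed by proteasome inhibitor MG132; luminescence from HSF1-driven luciferase expression after 8 hours of MG132 stress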
T5 sequence (P38532 whole entry): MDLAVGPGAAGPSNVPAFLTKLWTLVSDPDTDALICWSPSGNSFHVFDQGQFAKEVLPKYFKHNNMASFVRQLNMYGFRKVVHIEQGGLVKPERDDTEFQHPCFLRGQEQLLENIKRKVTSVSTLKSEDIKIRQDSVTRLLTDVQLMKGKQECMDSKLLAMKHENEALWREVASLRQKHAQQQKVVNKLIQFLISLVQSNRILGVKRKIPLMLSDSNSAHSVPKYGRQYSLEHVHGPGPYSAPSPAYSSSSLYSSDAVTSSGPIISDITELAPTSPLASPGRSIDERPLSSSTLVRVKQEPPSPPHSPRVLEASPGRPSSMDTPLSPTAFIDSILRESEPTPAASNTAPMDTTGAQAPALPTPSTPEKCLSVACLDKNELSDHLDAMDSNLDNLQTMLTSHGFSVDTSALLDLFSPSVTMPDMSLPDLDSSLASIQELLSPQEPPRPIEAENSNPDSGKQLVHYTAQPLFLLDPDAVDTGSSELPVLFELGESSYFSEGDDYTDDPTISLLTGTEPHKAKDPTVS

[10] = control 3'UTR Renilla luciferase suppression, dose response, counter-screen for Shn3 inhibitor project, cell-based, Clone20-Shn3RL, cherry-picked (AID 624133); format: functional
[11] = HepG2 cell cytotoxicity, dose response, cytotoxicity control for Shn3 inhibitor project, CellTiter-Glo, cherry-picked (AID 624134); format: functional, cell-based
[12] = cytotoxicity in HEK-293T NF-kB-Luc cells, dose response, cytotoxicity control for B/T-cell NF-kB inhibitor project, cell-based, uHTS hits (AID 489019); format: functional;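 note: IC50 reflects cytotoxicity as loss of cell viability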
HEK293 [13] = assay: NOD1 signaling inhibitors, primary screen, cell-based, luminescence, uHTS (AID 1578); format: functional; settings: Homo sapiens
HEK293 [14] = assay: NOD2 signaling inhibitors in MDP-stimulated cells, cell-based, uHTS, luminescence (AID 2001); format: functional; settings: Homo sapiens
[15] = Shn3 3'UTR reporter inhibitors, dose response, cell-based, Clone20 osteoblasts, firefly luciferase, cherry-picked (AID 624132); format: functional;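 note: firefly luciferase luminescence from reporter carrying the Shn3 3'UTR in osteoblasts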
[16] = Luminescence Cell-Based Dose Response HTS to Identify Inhibitors of 5'UTR Stem-Loop Driven Prion Protein mRNA Translation in H4 Neuroglioblastoma Cells. [Related pubchem assays: 1827 (Project Summary), 1813 (Primary HTS)]; format: functional
HEK293 [17] = assay: cells; format: functional, cell-based; settings: Homo sapiens
Jurkat = assay: antigen receptor-induced NF-kB inhibitors, dose response, Jurkat, luciferase reporter, luminescence, B- and T-cell (AID 489004); format: functional, cell-based; settings: Homo sapiens;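 note: NF-kB luciferase reporter Jurkat cells stimulated with PMA plus ionomycin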
HEK293 [18] = assay: cells; format: functional, cell-based; settings: Homo sapiens; remark: listed apart in the source
[19] = inhibitors of SNCA 5'UTR-driven reporter translation, confirmation, H4 neuroglioma cells, luminescence (AID 1988); format: functional, cell-based

CC(C)C[C@H](NC(=O)[C@H](CC(C)C)NC(=O)[C@@H](Cc1c[nH]c2ccccc12)NC(=O)[C@H](Cc1ccccc1)NC(=O)[C@@H](Cc1c[nH]c2ccccc12)NC(=O)[C@H](CCC(N)=O)NC(=O)[C@H](CCC(N)=O)NC(=O)[C@H]1CCCN1C(=O)[C@@H](N)CCCCN)C(N)=O (H-K[dP]QQ[dW]F[dW]LL-NH2)
GI50 (SN12K1): > 100 µM (inactive) | GI50 (P388/ADR): > 100 µM (inactive) | GI50 (P388): > 100 µM (inactive)

CC(=O)Nc1ccc(NC(=O)c2ccc(CN3CCc4ccccc4C3)cc2)cc1
IC50 (Tumor necrosis factor): > 20 µM (inactive) | IC50 (HEK293 [1]): > 20 µM (inactive) | IC50 [2]: > 20 µM (inactive)

Cc1cc(C)nc(NNS(=O)(=O)c2ccc(Cl)cc2)n1
IC50 [3]: > 40 µM (not active) | EC50 (Beta-galactosidase): > 40 µM (inactive)

CN(C)CCNc1c2ccccc2c2c3c(cccc13)C(=O)N(CCN(C)C)C2=O
GI50 (SN12K1): 0.31 µM (active) | GI50 (P388/ADR): 0.218 µM (active) | GI50 (P388): 0.0723 µM (active)

Cc1ccc(NNC(=O)c2c(C)noc2C)cc1Cl
IC50 [3]: 5.22 µM (active) | EC50 (Beta-galactosidase): > 40 µM (inactive)

CN1CCN(C(=S)c2ccc(Br)cc2)CC1
IC50 [4]: 30.8 µM (inactive) | IC50 [5]: 1.14 µM (active) | IC50 [6]: > 80 µM (inactive) | IC50 [7]: 1.51 µM (active)

CCCCN(CC)Cc1ccc(CN=C(S)Nc2c(C)cc(C)cc2C)o1
IC50 [4]: 45.9 µM (inactive) | IC50 [5]: 2.45 µM (active) | IC50 [7]: 4.52 µM (active)

CC1NC(=O)CC(c2ccccc2)N(N=O)C1c1ccccc1 (stereo not given)
GI50 (SN12K1): 21.6 µM (inactive) | GI50 (P388/ADR): 15.3 µM (inactive) | GI50 (P388): 10.3 µM (inactive)

NNc1nc(-c2ccccc2)cc(-c2ccccc2O)n1
IC50 [3]: 4.2 µM (active) | AC50 (INS1): 1.7 µM (active) | EC50 (Beta-galactosidase): > 40 µM (inactive)

CC(Nc1ncnc2sccc12)c1ccccc1 (stereo not given)
EC50 [8]: > 120 µM (not active) | EC50 [9]: > 195 µM (not active) | AC50 [10]: 0.606 µM (active) | AC50 [11]: 1.71 µM (active) | IC50 [12]: > 80 µM (inactive) | EC50 (HEK293 [13]): 1.36 µM (active) | IC50 (HEK293 [14]): 3.62 µM (active) | AC50 [15]: 0.505 µM (active) | EC50 [16]: > 120 µM (not active) | IC50 (HEK293 [17]): 13.5 µM (active) | IC50 (Tumor necrosis factor): 2.35 µM (active) | IC50 (Jurkat): > 80 µM (inactive) | IC50 (HEK293 [1]): > 20 µM (inactive) | IC50 (HEK293 [18]): 2.67 µM (active) | EC50 [19]: > 120 µM (not active) | IC50 [2]: 1.55 µM (active)

CCCCCCCCCCCC[C@@H](O)[C@H]1CC[C@H]([C@H](O)CCCC[C@H](O)CCCCC[C@@H](O)CC2=C[C@H](C)OC2=O)O1
GI50 (SN12K1): < 0.01 µM (active) | GI50 (P388/ADR): 0.106 µM (active) | GI50 (P388): < 0.0366 µM (active)

C=C1C(O)[C@@H]2O[C@]3(CC[C@H](/C=C/C(C)[C@@H]4CC(C)=CC5(O[C@H](C[C@@](C)(O)C(=O)O)CCC5O)O4)O3)CC[C@H]2O[C@@H]1C(O)CC(C)[C@H]1OC2(CCCCO2)CCC1C (stereo not given in full)
IC50 [12]: > 80 µM (inactive) | AC50 (INS1): < 0.195 µM (active) | IC50 (Jurkat): 0.17 µM (active)

Cc1ccc(C(=O)COC(=O)c2ccncc2)cc1[N+](=O)[O-]
IC50 [3]: 20 µM (active) | EC50 (Beta-galactosidase): > 40 µM (inactive)
